From patent publication US20040253267A1 (priority 2003, published 2004)
Like-named read-outs stand apart in the source and are kept apart here.

Key:
[1] = tested on: breast cancer cell line MA782/5S-B; conditions: for Number of live animals remaining in the groups after 30 days of treatment: 30 mice per group
Experimental: (§1) The animals used to generate the breast cancer cells for the experiments were female mice derived from an outbreed line of mouse (obtainable from the Chinese Academy of Military Medical Sciences, Beijing, China), having an average body weight of about 18 to 20 gram. About […] viable tumor cells of the breast cancer cell line MA782/5S-B (obtainable from the Cancer Institute, Chinese Academy of Medical Sciences, Beijing, China) in about 0.2 ml culture suspension were injected subcutaneously into the animals.
The survival time of mice after tumor injection and treatment was studied.
(§2) The biological composition comprising 10^8 cells per ml of activated and conditioned yeast cells of the strain Saccharomyces carlsbergensis Hansen strain AS2.441 was prepared by the methods described in Section 5.1 and subsections therein.
The animals were prepared in a similar manner as described in Section 8.1.
The mice injected with tumor cells were immediately divided into 4 experimental groups of ten mice per group and one control group. The four experimental groups were triplicated (i.e., using a total of 120 mice in the experimental groups). In group 2AY, the mice received 0.5 ml of the biological composition once per day. In group 2NY, the mice received 0.5 ml of the untreated yeast cells once per day. In group 2CTX, the mice were injected subcutaneously with 45 mg of cyclophosphamide (CTX) per kg body weight per day. In group 2CK1, the mice received 0.5 ml of physiological saline once per day.
The mice received the biological compositions, untreated yeast cells, CTX or saline on the same day as the tumor cells were transplanted. The mice in group 2CK2 also started receiving saline on the same day as the other four groups. The biological compositions, untreated yeast cells and saline were administered orally by a feeding tube and the CTX by subcutaneous injection for 30 consecutive days. The mice were observed over 6 months from the day of tumor inoculation and survival was recorded. The weight of the mice and the weight of the tumor were determined by standard techniques.

[2] = tested on: breast cancer cell line MA782/5S-B; conditions: 31st day from tumor inoculation, 30 consecutive days treatment; AY/NY 0.3 ml oral once per day, CTX 30 mg/kg/day s.c.
Experimental: as §2, §1
The mice injected with tumor cells were immediately divided into 4 experimental groups of ten mice per group and one control group. The four experimental groups were triplicated (i.e., using a total of 120 mice in the experimental groups).
The mice received the biological compositions, untreated yeast cells, CTX or saline on the same day as the tumor cells were transplanted. The mice in group CK2 also started receiving saline on the same day as the other four groups. […] The weight of the mice and the weight of the tumor were determined by standard techniques.

[3] = tested on: breast cancer cell line Ca615-B; test: Tumor growth in 615 strain mouse model of human breast cancer (Example 6); format: in vivo; conditions: 31st day from tumor inoculation, 30 consecutive days treatment; AY/NY 0.3 ml oral once per day, TSPA 1.5 mg/kg/day i.v.
Experimental: In group TSPA, the mice were injected intravenously with 1.5 mg of thiotepa (TSPA) per kg body weight per day.

[4] = tested on: breast cancer cell line Ca615-B; test: Survival time in 615 strain mouse model of human breast cancer (Example 7); format: in vivo; conditions: for Number of live animals remaining in the groups after 30 days of treatment: 30 mice per group
Experimental: In group 2TSPA, the mice were injected intravenously with 2.5 mg of thiotepa (TSPA) per kg body weight per day.

[5] = mice that survived, observed over 6 months, 2AY/2NY 0.5 ml oral once per day, 2CTX 45 mg/kg/day s.c., 30 days
[6] = mice that survived, observed over 6 months, 2AY/2NY 0.5 ml oral once per day, 2TSPA 2.5 mg/kg/day i.v., 30 days

In the case of `O=P1(N(CCCl)CCCl)NCCCO1` (stereo not drawn) [CTX, cyclophosphamide], the “Number of live animals remaining in the groups after 30 days of treatment” value (from here on “Number of live animals remaining”) ([1]; 0 month after cessation of treatment, 2AY/2NY 0.5 ml oral once per day, 2CTX 45 mg/kg/day s.c.) is reported as 30, the “Number of live animals remaining” value ([1]; 1 month after cessation of treatment, 2AY/2NY 0.5 ml oral once per day, 2CTX 45 mg/kg/day s.c.) is reported as 30 and the “Number of live animals remaining” value ([1]; 2 months after cessation of treatment, 2AY/2NY 0.5 ml oral once per day, 2CTX 45 mg/kg/day s.c.) is reported as 17. The “Number of live animals remaining” value ([1]; 3 months after cessation of treatment, 2AY/2NY 0.5 ml oral once per day, 2CTX 45 mg/kg/day s.c.) was 0, the “Number of live animals remaining” value ([1]; 4 months after cessation of treatment, 2AY/2NY 0.5 ml oral once per day, 2CTX 45 mg/kg/day s.c.) was 0 and the “Number of live animals remaining” value ([1]; 5 months after cessation of treatment, 2AY/2NY 0.5 ml oral once per day, 2CTX 45 mg/kg/day s.c.) was 0. The “Number of live animals remaining” value ([1]; 6 months after cessation of treatment, 2AY/2NY 0.5 ml oral once per day, 2CTX 45 mg/kg/day s.c.) was 0, the “survival outcome (in words)” value ([1]; observed over 6 months, 2NY 0.5 ml per day, 2CTX 45 mg/kg/day) was “all died during the experiment” and the “mean weight of mice and standard deviation” value [2] was 19.4 ± 2.2 g. For the same molecule, the “mean weight of tumor nodules and standard deviation” value [2] was 3.1 ± 1.7 g.
With `S=P(N1CC1)(N1CC1)N1CC1` [TSPA, thiotepa] the “mean weight of mice and standard deviation” value [3] was 20 ± 2.4 g, the “mean weight of tumor nodules and standard deviation” value [3] was 3.1 ± 1.6 mg and the “mean weight of mice and standard deviation” value [1, 5] was “all animals dead”. For the same molecule, the “mean weight of tumor nodules and standard deviation” value [1, 5] was “all animals dead”, the “Number of live animals remaining” value ([4]; 0 month after cessation of treatment, 2AY/2NY 0.5 ml oral once per day, 2TSPA 2.5 mg/kg/day i.v.) was 30 and the “Number of live animals remaining” value ([4]; 1 month after cessation of treatment, 2AY/2NY 0.5 ml oral once per day, 2TSPA 2.5 mg/kg/day i.v.) was 30. For the same molecule, the “Number of live animals remaining” value ([4]; 2 months after cessation of treatment, 2AY/2NY 0.5 ml oral once per day, 2TSPA 2.5 mg/kg/day i.v.) was 23, the “Number of live animals remaining” value ([4]; 3 months after cessation of treatment, 2AY/2NY 0.5 ml oral once per day, 2TSPA 2.5 mg/kg/day i.v.) was 11 and the “Number of live animals remaining” value ([4]; 4 months after cessation of treatment, 2AY/2NY 0.5 ml oral once per day, 2TSPA 2.5 mg/kg/day i.v.) was 4. For the same molecule, the “Number of live animals remaining” value ([4]; 5 months after cessation of treatment, 2AY/2NY 0.5 ml oral once per day, 2TSPA 2.5 mg/kg/day i.v.) was 0, the “Number of live animals remaining” value ([4]; 6 months after cessation of treatment, 2AY/2NY 0.5 ml oral once per day, 2TSPA 2.5 mg/kg/day i.v.) was 0 and the “mean weight of mice and standard deviation” value [4, 6] was “all animals dead”. The “mean weight of tumor nodules and standard deviation” value [4, 6] was “all animals dead” and the “survival outcome (in words)” value ([4]; observed over 6 months, 2AY/2NY 0.5 ml per day, 2TSPA 2.5 mg/kg/day) was “all died during the experiment”.
